In ChEMBL document CHEMBL2010767, “Agonists for the Chemokine Receptor CXCR4” (ACS Med Chem Lett, 2011):
pIC50: −log10 of the molar value. The source made the active and inactive calls. No cut-off for these calls is given here.

Columns and labels:
[1] = biological target: T1, C-X-C chemokine receptor type 4 (Homo sapiens, UniProt P61073); assay: Displacement of [125I]-SDF-1alpha from human CXCR4 receptor expressed in HEK293 cells after 1 hr by gamma counting; assay type: cell-based
[2] = biological target: T1, C-X-C chemokine receptor type 4; assay: Antagonist activity at CXCR4 receptor in human REH cells assessed as inhibition of SDF-1alpha-induced chemotactic migration after 3 hrs; assay type: functional, cell-based
[3] = biological target: T1, C-X-C chemokine receptor type 4; assay: Agonist activity at CXCR4 receptor in human REH cells assessed as induction of chemotactic migration at 10 to 100 nM after 3 hrs; assay type: functional, cell-based
[4] = biological target: T1, C-X-C chemokine receptor type 4; assay: Agonist activity at CXCR4 receptor in human REH cells assessed as induction of chemotactic migration at 1 uM after 3 hrs; assay type: functional, cell-based

T1 sequence (P61073 whole entry): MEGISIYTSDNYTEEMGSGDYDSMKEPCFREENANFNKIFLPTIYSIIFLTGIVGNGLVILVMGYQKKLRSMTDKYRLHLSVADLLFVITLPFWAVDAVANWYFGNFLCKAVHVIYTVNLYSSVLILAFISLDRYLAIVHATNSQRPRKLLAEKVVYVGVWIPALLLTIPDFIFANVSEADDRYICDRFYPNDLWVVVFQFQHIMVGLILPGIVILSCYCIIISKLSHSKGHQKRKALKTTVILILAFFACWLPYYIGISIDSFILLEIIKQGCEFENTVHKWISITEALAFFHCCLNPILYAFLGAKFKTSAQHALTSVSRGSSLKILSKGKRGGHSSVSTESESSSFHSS

pIC50 [1]	Activity [2]	Activity [3]	pIC50 ([1]; hek293)	Activity [4]	Compound
8.65	Active	–	–	–	CC(C)C[C@H](NC(=O)[C@H](CO)NC(=O)[C@@H](NC(=O)[C@@H]1CCCN1C(=O)[C@@H](N)CCCCN)C(C)C)C(=O)N[C@@H](CO)C(=O)N[C@@H](Cc1ccc(O)cc1)C(=O)NCCCC[C@@H]1NC(=O)[C@H](CCCNC(=N)N)NC(=O)[C@H](Cc2ccc(O)cc2)NC(=O)[C@@H]2CCCN2C(=O)[C@@H](CCCCN)NC(=O)[C@H](CCCCN)NC(=O)[C@H](CCCNC(=N)N)NC(=O)[C@H](Cc2ccc(O)cc2)NC(=O)[C@@H](NC(=O)[C@H](Cc2ccc3ccccc3c2)NC(=O)[C@H](CCCNC(=N)N)NC(=O)[C@@H](N)CCCNC(=N)N)CSSC[C@@H](C(=O)N[C@@H](CCCNC(=N)N)C(=O)O)CC1=O
8.02	–	Active	–	–	CC(C)C[C@H](NC(=O)[C@H](CO)NC(=O)[C@@H](NC(=O)[C@@H]1CCCN1C(=O)[C@@H](N)CCCCN)C(C)C)C(=O)N[C@@H](CO)C(=O)N[C@@H](Cc1ccc(O)cc1)C(=O)N[C@@H](CCCNC(=N)N)C(=O)N[C@@H](CO)C(=O)N1CCC[C@H]1C(=O)NCCCC[C@H](NC(=O)[C@@H]1CSSC[C@H](NC(=O)[C@H](Cc2ccc3ccccc3c2)NC(=O)[C@H](CCCNC(=N)N)NC(=O)[C@@H](N)CCCNC(=N)N)C(=O)N[C@@H](Cc2ccc(O)cc2)C(=O)N[C@@H](CCCNC(=N)N)C(=O)N[C@@H](CCCCN)C(=O)N[C@H](CCCCN)C(=O)N2CCC[C@H]2C(=O)N[C@@H](Cc2ccc(O)cc2)C(=O)N[C@@H](CCCNC(=N)N)C(=O)N[C@@H](CCCNC(=N)N)C(=O)C1)C(=O)O
–	–	–	6.77	Active	CC(C)C[C@H](NC(=O)[C@H](CO)NC(=O)[C@@H](NC(=O)[C@@H]1CCCN1C(=O)[C@@H](N)CCCCN)C(C)C)C(=O)N[C@@H](CO)C(=O)N[C@@H](Cc1ccc(O)cc1)C(=O)NCCCC[C@@H](NC(=O)[C@@H]1CSSC[C@H](NC(=O)[C@H](Cc2ccc3ccccc3c2)NC(=O)[C@H](CCCNC(=N)N)NC(=O)[C@@H](N)CCCNC(=N)N)C(=O)N[C@@H](Cc2ccc(O)cc2)C(=O)N[C@@H](CCCNC(=N)N)C(=O)N[C@@H](CCCCN)C(=O)N[C@H](CCCCN)C(=O)N2CCC[C@H]2C(=O)N[C@@H](Cc2ccc(O)cc2)C(=O)N[C@@H](CCCNC(=N)N)C(=O)N[C@@H](CCCNC(N)=O)C(=O)C1)C(=O)O
